Measured values reported in ChEMBL document CHEMBL4334467, “Synthesis and SAR Study of Carbamoyl Pyridone Bicycle Derivatives as Potent Inhibitors of Influenza Cap-dependent Endonuclease” (J Med Chem, 2019).
pEC50: −log10 of the molar value.

Assays:
[1] = system: Influenza A virus; type: functional, organism-based
[2] = system: Influenza A virus; experiment: microbe, parasite or virus in culture; type: functional, organism-based; conditions: A/WSN/1933(H1N1), MDCK, 72 h

Compound | pEC50 [1] | pEC50 [2]
CC(C)N1CN(C(c2ccccc2)c2ccccc2)n2ccc(=O)c(O)c2C1=O | 7.09 | 6.78
CC(C)N1C[C@H](C(c2ccccc2)c2ccccc2)n2ccc(=O)c(O)c2C1=O | 7.05 | 6.81
